How the values were obtained:
CDK2 = molecular target: T1, CDK2 (Homo sapiens, UniProt P24941); assay: CDK protein degradation activity (Western blotting), CDK2; assay type: cell-based; conditions: MDA-MB-231 cells, 16 hours, Western blot
T1 construct: endogenous in cells; host or cells: MDA-MB-231
Method in brief: (§1)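 MDA-MB-231; cmpd 100 nM / 1 μM / 10 μM final vs DMSO, 16 h. Triton X-100 lysates (pH 7.5, phosphatase/protease inhibitors) → SDS-PAGE → Western blot, anti-CDK2, anti-CDK9, tubulin loading control; densitometry.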

CDK9 = molecular target: T2, CDK9 (Homo sapiens, UniProt P50750); assay: CDK protein degradation activity (Western blotting), CDK9; assay type: cell-based; conditions: MDA-MB-231 cells, 16 hours, Western blot
T2 construct: endogenous in cells; host or cells: MDA-MB-231
Method in brief: as §1

T2 sequence (P50750 whole entry): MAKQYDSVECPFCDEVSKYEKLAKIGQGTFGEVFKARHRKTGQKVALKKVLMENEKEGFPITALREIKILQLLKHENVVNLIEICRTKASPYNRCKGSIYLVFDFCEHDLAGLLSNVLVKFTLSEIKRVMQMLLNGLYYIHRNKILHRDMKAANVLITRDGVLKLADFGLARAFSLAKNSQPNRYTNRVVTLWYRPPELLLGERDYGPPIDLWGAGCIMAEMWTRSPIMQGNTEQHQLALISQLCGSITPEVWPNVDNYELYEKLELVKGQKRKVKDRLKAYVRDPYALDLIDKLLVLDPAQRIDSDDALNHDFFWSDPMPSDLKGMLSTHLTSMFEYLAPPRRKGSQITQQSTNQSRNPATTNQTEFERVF

| SMILES | Enzyme degradation CDK2 (% remaining) @ 0.1 μM (CDK2) | Enzyme degradation CDK2 (% remaining) @ 1 μM (CDK2) | Enzyme degradation CDK2 (% remaining) @ 10 μM (CDK2) | Enzyme degradation CDK9 (% remaining) @ 0.1 μM (CDK9) | Enzyme degradation CDK9 (% remaining) @ 1 μM (CDK9) | Enzyme degradation CDK9 (% remaining) @ 10 μM (CDK9) |
| --- | --- | --- | --- | --- | --- | --- |
| O=C1CC[C@H](n2nnc3ccc(N4CCC(N5CCN(c6ccc(Nc7ncnc8c7ncn8[C@H]7C[C@@H](NC(=O)Cc8ccccc8)C7)cc6)CC5)CC4)cc3c2=O)C(=O)N1 [Compound 334, N-((1s,3s)-3-(6-((4-(4-(1-(3-(2,6-dioxopiperidin-3-yl)-4-oxo-3,4-dihydrobenzo[d][1,2,3]triazin-6-yl)piperidin-4-yl)piperazin-1-yl)phenyl)amino)-9H-purin-9-yl)cyclobutyl)-2-phenylacetamide] | 60% | 50% | 50% | 20% | 10% | 10% |
| O=C1CC[C@H](N2C(=O)c3ccc(N4CCN(C5CC6(CCN(c7ccc(Nc8ncnc9c8ncn9[C@H]8C[C@@H](NC(=O)Cc9ccccc9)C8)cc7)CC6)C5)CC4)cc3C2=O)C(=O)N1 [Compound 335, N-((1s,3s)-3-(6-((4-(2-(4-(2-(2,6-dioxopiperidin-3-yl)-1,3-dioxoisoindolin-5-yl)piperazin-1-yl)-7-azaspiro[3.5]nonan-7-yl)phenyl)amino)-9H-purin-9-yl)cyclobutyl)-2-phenylacetamide] | 20% | 10% | 10% | 70% | 0% | 0% |
| O=C1CC[C@H](N2C(=O)c3cc(F)c(N4CCN(C5CC6(CCN(c7ccc(Nc8ncnc9c8ncn9[C@H]8C[C@@H](NC(=O)Cc9ccccc9)C8)cc7)CC6)C5)CC4)cc3C2=O)C(=O)N1 [Compound 336, N-((1s,3s)-3-(6-((4-(2-(4-(2-(2,6-dioxopiperidin-3-yl)-6-fluoro-1,3-dioxoisoindolin-5-yl)piperazin-1-yl)-7-azaspiro[3.5]nonan-7-yl)phenyl)amino)-9H-purin-9-yl)cyclobutyl)-2-phenylacetamide] | 100% | 0% | 0% | 100% | 0% | 0% |
| O=C1CC[C@H](n2nnc3ccc(N4CCN(C5CC6(CCN(c7ccc(Nc8ncnc9c8ncn9C8CC(NC(=O)Cc9ccccc9)C8)cc7)CC6)C5)CC4)cc3c2=O)C(=O)N1 (stereo partly drawn) [Compound 337, N-((1s,3s)-3-(6-((4-(2-(4-(3-(2,6-dioxopiperidin-3-yl)-4-oxo-3,4-dihydrobenzo[d][1,2,3]triazin-6-yl)piperazin-1-yl)-7-azaspiro[3.5]nonan-7-yl)phenyl)amino)-9H-purin-9-yl)cyclobutyl)-2-phenylacetamide] | 0/0/0% | 0/0/0% | 0/0/0% | 50% | 10% | 10% |
| O=C1CC[C@H](N2C(=O)c3ccc(N4CCN(CCC5CCN(c6ccc(Nc7ncnc8c7ncn8[C@H]7C[C@@H](NC(=O)Cc8ccccc8)C7)cc6)CC5)CC4)cc3C2=O)C(=O)N1 [Compound 338, N-((1s,3s)-3-(6-((4-(4-(2-(4-(2-(2,6-dioxopiperidin-3-yl)-1,3-dioxoisoindolin-5-yl)piperazin-1-yl)ethyl)piperidin-1-yl)phenyl)amino)-9H-purin-9-yl)cyclobutyl)-2-phenylacetamide] | 10% | 0% | 0% | 50% | 0% | 0% |
| O=C1CC[C@H](N2C(=O)c3ccc(N4CC(C(=O)N5CCC(N6CCN(c7ccc(Nc8ncnc9c8ncn9[C@H]8C[C@@H](NC(=O)Cc9ccccc9)C8)cc7)CC6)CC5)C4)cc3C2=O)C(=O)N1 [Compound 342, N-((1s,3s)-3-(6-((4-(4-(1-(1-(2-(2,6-dioxopiperidin-3-yl)-1,3-dioxoisoindolin-5-yl)azetidin-3-carbonyl)piperidin-4-yl)piperazin-1-yl)phenyl)amino)-9H-purin-9-yl)cyclobutyl)-2-phenylacetamide] | 0/0/0% | 0/0/0% | 0/0/0% | 0/0/0% | 0/0/0% | 0/0/0% |
| O=C1CC[C@H](N2C(=O)c3ccc(N4CCC(C(=O)N5CCC(N6CCN(c7ccc(Nc8ncnc9c8ncn9[C@H]8C[C@@H](NC(=O)Cc9ccccc9)C8)cc7)CC6)CC5)CC4)cc3C2=O)C(=O)N1 [Compound 343, N-((1s,3s)-3-(6-((4-(4-(1-(1-(2-(2,6-dioxopiperidin-3-yl)-1,3-dioxoisoindolin-5-yl)piperidin-4-carbonyl)piperidin-4-yl)piperazin-1-yl)phenyl)amino)-9H-purin-9-yl)cyclobutyl)-2-phenylacetamide] | 30% | 30% | 40% | 10% | 0% | 0% |
| O=C1CCC(n2nnc3ccc(N4CC(N5CCN(c6ccc(Nc7ncnc8c7ncn8[C@H]7C[C@@H](NC(=O)Cc8ccccc8)C7)cc6)CC5)C4)cc3c2=O)C(=O)N1 (stereo partly drawn) [Compound 346, N-((1s,3s)-3-(6-((4-(4-(1-(3-(2,6-dioxopiperidin-3-yl)-4-oxo-3,4-dihydrobenzo[d][1,2,3]triazin-6-yl)azetidin-3-yl)piperazin-1-yl)phenyl)amino)-9H-purin-9-yl)cyclobutyl)-2-phenylacetamide] | 10% | 0% | 0% | 30/30/30% | 30/30/30% | 30/30/30% |
| O=C1CC[C@H](N2C(=O)c3ccc(N4CCN(CCCC5CCN(c6ccc(Nc7ncnc8c7ncn8C7CC(NC(=O)Cc8ccccc8)C7)cc6)CC5)CC4)cc3C2=O)C(=O)N1 (stereo partly drawn) [Compound 347, N-((1s,3s)-3-(6-((4-(4-(3-(4-(2-(2,6-dioxopiperidin-3-yl)-1,3-dioxoisoindolin-5-yl)piperazin-1-yl)propyl)piperidin-1-yl)phenyl)amino)-9H-purin-9-yl)cyclobutyl)-2-phenylacetamide] | 10% | 0% | 0% | 30% | 0% | 0% |
| O=C1CC[C@H](N2C(=O)c3cc(F)c(N4CCN(CCCC5CCN(c6ccc(Nc7ncnc8c7ncn8[C@H]7C[C@@H](NC(=O)Cc8ccccc8)C7)cc6)CC5)CC4)cc3C2=O)C(=O)N1 [Compound 348, N-((1s,3s)-3-(6-((4-(4-(3-(4-(2-(2,6-dioxopiperidin-3-yl)-6-fluoro-1,3-dioxoisoindolin-5-yl)piperazin-1-yl)propyl)piperidin-1-yl)phenyl)amino)-9H-purin-9-yl)cyclobutyl)-2-phenylacetamide] | 30% | 10% | 10% | 80% | 20% | 0% |
| O=C1CC[C@H](n2nnc3ccc(N4CCN(CCCC5CCN(c6ccc(Nc7ncnc8c7ncn8C7CC(NC(=O)Cc8ccccc8)C7)cc6)CC5)CC4)cc3c2=O)C(=O)N1 (stereo partly drawn) [Compound 349, N-((1s,3s)-3-(6-((4-(4-(3-(4-(3-(2,6-dioxopiperidin-3-yl)-4-oxo-3,4-dihydrobenzo[d][1,2,3]triazin-6-yl)piperazin-1-yl)propyl)piperidin-1-yl)phenyl)amino)-9H-purin-9-yl)cyclobutyl)-2-phenylacetamide] | 0/0/0% | 0/0/0% | 0/0/0% | 30% | 20% | 20% |

Source: patent US20260125382A1, “COMPOUNDS FOR INHIBITING OR DEGRADING CDK2 AND/OR CDK9 AND MEDICINAL USE THEREOF” (KOREA RESEARCH INSTITUTE OF CHEMICAL TECHNOLOGY, priority 2022, published 2026)
